{
  "source": "paper PMC12093056",
  "about": "“Mechanistic insights into the ATP-mediated and species-dependent inhibition of TrpRS by chuangxinmycin” (RSC Chemical Biology, 2025)",
  "key": {"SaTrpRS [1]": {"molecular_target": "T1, SaTrpRS (Staphylococcus aureus, UniProt P67594)", "T1 construct": "gene trpS; codon-optimised synthetic gene, C-terminal 6xHis tag (pET-28a), no tag cleavage told; E. coli BL21(DE3); dimer", "T1 sequence (P67594 whole entry)": "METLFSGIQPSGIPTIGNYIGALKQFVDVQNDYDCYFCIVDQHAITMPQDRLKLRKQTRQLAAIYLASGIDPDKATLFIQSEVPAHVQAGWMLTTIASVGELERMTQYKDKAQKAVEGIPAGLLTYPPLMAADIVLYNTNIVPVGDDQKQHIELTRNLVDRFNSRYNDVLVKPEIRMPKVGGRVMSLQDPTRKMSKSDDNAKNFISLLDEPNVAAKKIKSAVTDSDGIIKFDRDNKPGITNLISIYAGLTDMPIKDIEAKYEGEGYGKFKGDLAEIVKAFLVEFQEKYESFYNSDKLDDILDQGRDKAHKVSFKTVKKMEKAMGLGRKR", "assay": "ATP consumption, Kinase-Glo luminescence", "type": "biochemical", "details": "2 μM ATP, 10 μM Trp, 40 mM MgCl2, 50 mM NH2OH instead of tRNA, pH 7.5, 37 °C, 1.5 h"}, "EcTrpRS [2]": {"molecular_target": "T2, EcTrpRS (Escherichia coli, UniProt P00954)", "T2 construct": "gene trpS; C-terminal 6xHis tag (pET-28a), no tag cleavage told; E. coli BL21(DE3); two chains in asymmetric unit", "assay": "X-ray crystal structure", "type": "binding"}, "EcTrpRS [3]": {"molecular_target": "T2, EcTrpRS", "assay": "ATP consumption, Kinase-Glo luminescence", "type": "biochemical", "details": "2 μM ATP, 10 μM Trp, 40 mM MgCl2, 50 mM NH2OH instead of tRNA, pH 7.5, 37 °C; Trp site"}, "SaTrpRS [4]": {"molecular_target": "T1, SaTrpRS", "assay": "ATP consumption, Kinase-Glo luminescence", "type": "biochemical", "details": "2 μM ATP, 10 μM Trp, 40 mM MgCl2, 50 mM NH2OH instead of tRNA, pH 7.5, 37 °C; Trp site"}, "SaTrpRS [5]": {"molecular_target": "T1, SaTrpRS", "assay": "X-ray crystal structure", "type": "binding", "details": "Trp site"}},
  "data": [
    {"smiles": "Nc1ncnc2c1ncn2[C@@H]1O[C@H](COP(=O)(O)OP(=O)(O)OP(=O)(O)O)[C@@H](O)[C@H]1O", "note": "[ATP]", "values": [
      {"measurement": "ATP consumption, Kinase-Glo luminescence", "setting": "SaTrpRS [1]", "result": "The activity of TrpRS was measured vis ATP hydrolysis using Kinase-Glo® kit"}
    ]},
    {"smiles": "CC1c2c[nH]c3cccc(c23)SC1C(=O)O", "note": "(centres unmarked) [CXM, chuangxinmycin]", "values": [
      {"measurement": "X-ray crystal structure", "setting": "EcTrpRS [2]; 2.24 Å, open chain A, Trp site, also ternary with ATP and Mg2+ (1.92 and 2.15 Å)", "result": "Chain A exists in an open state and binds to a CXM molecule"},
      {"measurement": "inhibition", "setting": "EcTrpRS [3]", "result": "Inhibition of EcTrpRS by CXM, dCXM, and mCXM, as measured by ATP hydrolysis assays"}
    ]},
    {"smiles": "O=C(O)C1Cc2c[nH]c3cccc(c23)S1", "note": "(centres unmarked) [dCXM, 3-demethylchuangxinmycin]", "values": [
      {"measurement": "X-ray crystal structure", "setting": "EcTrpRS [2]; Trp site", "result": "The complex structures of these analogues with EcTrpRS and SaTrpRS were solved."},
      {"measurement": "inhibition", "setting": "EcTrpRS [3]", "result": "Inhibition of EcTrpRS by CXM, dCXM, and mCXM, as measured by ATP hydrolysis assays"}
    ]},
    {"smiles": "CC1(C)c2c[nH]c3cccc(c23)S[C@H]1C(=O)O", "note": "[mCXM, 3-methylchuangxinmycin]", "values": [
      {"measurement": "X-ray crystal structure", "setting": "EcTrpRS [2]; Trp site", "result": "The complex structures of these analogues with EcTrpRS and SaTrpRS were solved."},
      {"measurement": "inhibition", "setting": "EcTrpRS [3]", "result": "The inhibitory activity of mCXM against EcTrpRS is lower than that of CXM"},
      {"measurement": "inhibition", "setting": "SaTrpRS [4]", "result": "mCXM exhibits stronger inhibition of SaTrpRS compared to EcTrpRS"},
      {"measurement": "X-ray crystal structure", "setting": "SaTrpRS [5]", "result": "The complex structures of these analogues with EcTrpRS and SaTrpRS were solved."}
    ]},
    {"smiles": "N[C@@H](Cc1c[nH]c2ccccc12)C(=O)O", "note": "[tryptophan]", "values": [
      {"measurement": "X-ray crystal structure", "setting": "SaTrpRS [5]; 2.32 Å", "result": "SaTrpRS in complex with Trp (SaTrpRS/Trp complex)"}
    ]},
    {"smiles": "Nc1ncnc2c1ncn2[C@@H]1O[C@H](COP(=O)(O)OC(=O)[C@@H](N)Cc2c[nH]c3ccccc23)[C@@H](O)[C@H]1O", "note": "[tryptophanyl-5′-AMP]", "values": [
      {"measurement": "X-ray crystal structure", "setting": "EcTrpRS [2]; 2.24 Å, endogenous, closed chain B, enzyme-bound reaction intermediate", "result": "chain B is in a closed state and binds to an endogenous tryptophanyl-5′-AMP (TrpAMP) molecule"}
    ]}
  ]
}
